According to paper PMC10211317, “Identification of ARUK2002821 as an isoform-selective PI5P4Kα inhibitor” (RSC Medicinal Chemistry, 2023):

Tests used:
Experiment in all cases: Premier Screen kinase panel (MRC PPU)
Type in all cases: biochemical
[1] = target: TSSK1 (Homo sapiens, UniProt Q9BXA7); settings: TSSK1 (Entrez TSSK1B), read-out: Residual activity (%)
Description: (§1) room temperature with shaking for 30 minutes. The kinase concentration in the eluates was measured by qPCR.
(§2) using ADP-GloTM assay at the MRC PPU International Centre for Kinase Profiling, University of Dundee.
(§3) Conducted by MRC PPU International Centre
(§4) Conducted by MRC PPU International Centre for […]

[2] = target: PKCγ (Homo sapiens, UniProt P05129); settings: read-out: Residual activity (%)
Description: as §1, §2, §3, §4

[3] = target: PKD1 (Homo sapiens, UniProt Q15139); settings: PKD1 (Entrez PKD1), read-out: Residual activity (%)
Chain of PKD1 (Q15139 whole entry): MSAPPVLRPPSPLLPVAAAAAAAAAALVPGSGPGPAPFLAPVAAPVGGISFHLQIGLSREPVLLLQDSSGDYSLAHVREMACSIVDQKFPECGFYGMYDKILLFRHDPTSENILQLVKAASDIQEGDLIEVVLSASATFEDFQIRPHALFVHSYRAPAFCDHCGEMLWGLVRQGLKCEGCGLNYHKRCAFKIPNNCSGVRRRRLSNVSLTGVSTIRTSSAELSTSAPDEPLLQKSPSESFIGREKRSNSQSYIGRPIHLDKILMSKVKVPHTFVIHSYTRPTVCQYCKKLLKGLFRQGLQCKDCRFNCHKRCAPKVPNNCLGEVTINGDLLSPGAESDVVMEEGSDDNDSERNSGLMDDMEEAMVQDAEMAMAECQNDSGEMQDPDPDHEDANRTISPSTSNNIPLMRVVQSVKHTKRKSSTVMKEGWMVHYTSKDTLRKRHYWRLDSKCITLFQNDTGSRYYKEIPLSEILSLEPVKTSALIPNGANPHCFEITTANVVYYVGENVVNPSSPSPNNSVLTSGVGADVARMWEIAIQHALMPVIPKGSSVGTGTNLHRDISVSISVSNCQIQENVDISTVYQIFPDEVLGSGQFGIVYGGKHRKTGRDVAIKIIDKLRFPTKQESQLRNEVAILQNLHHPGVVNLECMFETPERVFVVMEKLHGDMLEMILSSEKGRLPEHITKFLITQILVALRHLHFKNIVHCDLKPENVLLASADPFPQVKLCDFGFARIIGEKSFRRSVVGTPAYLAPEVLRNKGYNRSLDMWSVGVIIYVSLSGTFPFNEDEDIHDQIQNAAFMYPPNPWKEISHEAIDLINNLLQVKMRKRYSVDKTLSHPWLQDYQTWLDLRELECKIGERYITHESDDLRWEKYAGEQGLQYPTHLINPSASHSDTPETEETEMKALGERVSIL
Description: as §1, §2, §3, §4

[4] = target: BRSK1 (Homo sapiens, UniProt Q8TDC3); settings: BRSK1 (Entrez BRSK1), read-out: Residual activity (%)
Description: as §1, §2, §3, §4

[5] = target: DYRK1A (Homo sapiens, UniProt Q13627); settings: DYRK1A (Entrez DYRK1A), read-out: Residual activity (%)
Description: as §1, §2, §3, §4

[6] = target: DYRK2 (Homo sapiens, UniProt Q92630); settings: DYRK2 (Entrez DYRK2), read-out: Residual activity (%)
Description: as §1, §2, §3, §4

[7] = target: FGF-R1 (Homo sapiens, UniProt P11362); settings: FGF-R1 (Entrez FGFR1), read-out: Residual activity (%)
Description: as §1, §2, §3, §4

[8] = target: CAMK1 (Homo sapiens, UniProt Q14012); settings: CAMK1 (Entrez CAMK1), read-out: Residual activity (%)
Description: as §1, §2, §3, §4

[9] = target: EPH-A4 (Homo sapiens, UniProt P54764); settings: EPH-A4 (Entrez EPHA4), read-out: Residual activity (%)
Description: as §1, §2, §3, §4

[10] = target: ROCK 2 (Rattus norvegicus, UniProt Q62868); settings: ROCK 2 (Entrez ROCK2), read-out: Residual activity (%)
Description: as §1, §2, §3, §4

[11] = target: Src (Homo sapiens, UniProt P12931); settings: Src (Entrez SRC), read-out: Residual activity (%)
Description: as §1, §2, §3, §4

[12] = target: JNK2 (Homo sapiens, UniProt P45984); settings: JNK2 (Entrez MAPK9), read-out: Residual activity (%)
Description: as §1, §2, §3, §4

[13] = target: PKCz (Homo sapiens, UniProt Q05513); settings: PKCz (Entrez PRKCZ), read-out: Residual activity (%)
Description: as §1, §2, §3, §4

[14] = target: p38b MAPK (Homo sapiens, UniProt Q15759); settings: p38b MAPK (Entrez MAPK11), read-out: Residual activity (%)
Chain of p38b MAPK (Q15759 whole entry): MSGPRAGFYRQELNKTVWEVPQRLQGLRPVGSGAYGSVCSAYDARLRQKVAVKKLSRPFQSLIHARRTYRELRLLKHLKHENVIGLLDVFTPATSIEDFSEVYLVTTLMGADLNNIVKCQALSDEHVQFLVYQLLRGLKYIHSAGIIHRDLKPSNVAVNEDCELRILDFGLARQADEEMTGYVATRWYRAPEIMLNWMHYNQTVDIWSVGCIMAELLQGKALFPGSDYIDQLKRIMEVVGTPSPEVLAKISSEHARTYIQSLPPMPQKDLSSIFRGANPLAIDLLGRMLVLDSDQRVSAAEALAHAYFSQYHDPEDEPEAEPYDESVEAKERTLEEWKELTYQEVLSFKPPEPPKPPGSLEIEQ
Description: as §1, §2, §3, §4

[15] = target: PAK5 (Homo sapiens, UniProt Q9P286); settings: PAK5 (Entrez PAK5), read-out: Residual activity (%)
Chain of PAK5 (Q9P286 whole entry): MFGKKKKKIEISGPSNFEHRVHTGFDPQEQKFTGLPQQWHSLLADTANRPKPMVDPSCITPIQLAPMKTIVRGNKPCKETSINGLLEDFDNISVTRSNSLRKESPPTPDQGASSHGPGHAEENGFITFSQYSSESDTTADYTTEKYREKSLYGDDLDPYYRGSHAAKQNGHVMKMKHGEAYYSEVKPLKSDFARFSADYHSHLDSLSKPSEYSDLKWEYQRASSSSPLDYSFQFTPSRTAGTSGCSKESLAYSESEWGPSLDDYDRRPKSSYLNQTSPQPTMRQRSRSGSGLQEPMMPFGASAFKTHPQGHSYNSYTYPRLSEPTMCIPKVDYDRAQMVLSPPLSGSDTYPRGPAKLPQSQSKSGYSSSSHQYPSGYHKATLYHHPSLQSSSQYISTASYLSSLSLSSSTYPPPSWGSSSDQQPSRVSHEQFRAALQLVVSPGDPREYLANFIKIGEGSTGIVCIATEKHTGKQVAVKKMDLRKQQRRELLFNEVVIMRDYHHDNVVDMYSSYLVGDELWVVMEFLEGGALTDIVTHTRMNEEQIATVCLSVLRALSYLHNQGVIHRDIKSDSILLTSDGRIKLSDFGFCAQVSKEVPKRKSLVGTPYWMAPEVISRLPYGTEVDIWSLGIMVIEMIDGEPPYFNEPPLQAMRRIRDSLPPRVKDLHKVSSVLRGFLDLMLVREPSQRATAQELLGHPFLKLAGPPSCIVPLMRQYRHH
Description: as §1, §2, §3, §4

[16] = target: MAPKAP-K3 (Homo sapiens, UniProt Q16644); settings: MAPKAP-K3 (Entrez MAPKAPK3), read-out: Residual activity (%)
Description: as §1, §2, §3, §4

[17] = target: CLK2 (Homo sapiens, UniProt P49760); settings: CLK2 (Entrez CLK2), read-out: Residual activity (%)
Description: as §1, §2, §3, §4

[18] = target: MARK4 (Homo sapiens, UniProt Q96L34); settings: MARK4 (Entrez MARK4), read-out: Residual activity (%)
Description: as §1, §2, §3, §4

[19] = target: HIPK1 (Homo sapiens, UniProt Q86Z02); settings: HIPK1 (Entrez HIPK1), read-out: Residual activity (%)
Description: as §1, §2, §3, §4

[20] = target: TAK1 (Homo sapiens, UniProt O43318); settings: TAK1 (Entrez MAP3K7), read-out: Residual activity (%)
Description: as §1, §2, §3, §4

[21] = target: PAK6 (Homo sapiens, UniProt Q9NQU5); settings: PAK6 (Entrez PAK6), read-out: Residual activity (%)
Description: as §1, §2, §3, §4

[22] = target: PINK (Tribolium castaneum, UniProt D6WMX4); settings: PINK (Entrez PINK1), read-out: Residual activity (%)
Description: as §1, §2, §3, §4

[23] = target: TBK1 (Homo sapiens, UniProt Q9UHD2); settings: TBK1 (Entrez TBK1), read-out: Residual activity (%)
Chain of TBK1 (Q9UHD2 whole entry): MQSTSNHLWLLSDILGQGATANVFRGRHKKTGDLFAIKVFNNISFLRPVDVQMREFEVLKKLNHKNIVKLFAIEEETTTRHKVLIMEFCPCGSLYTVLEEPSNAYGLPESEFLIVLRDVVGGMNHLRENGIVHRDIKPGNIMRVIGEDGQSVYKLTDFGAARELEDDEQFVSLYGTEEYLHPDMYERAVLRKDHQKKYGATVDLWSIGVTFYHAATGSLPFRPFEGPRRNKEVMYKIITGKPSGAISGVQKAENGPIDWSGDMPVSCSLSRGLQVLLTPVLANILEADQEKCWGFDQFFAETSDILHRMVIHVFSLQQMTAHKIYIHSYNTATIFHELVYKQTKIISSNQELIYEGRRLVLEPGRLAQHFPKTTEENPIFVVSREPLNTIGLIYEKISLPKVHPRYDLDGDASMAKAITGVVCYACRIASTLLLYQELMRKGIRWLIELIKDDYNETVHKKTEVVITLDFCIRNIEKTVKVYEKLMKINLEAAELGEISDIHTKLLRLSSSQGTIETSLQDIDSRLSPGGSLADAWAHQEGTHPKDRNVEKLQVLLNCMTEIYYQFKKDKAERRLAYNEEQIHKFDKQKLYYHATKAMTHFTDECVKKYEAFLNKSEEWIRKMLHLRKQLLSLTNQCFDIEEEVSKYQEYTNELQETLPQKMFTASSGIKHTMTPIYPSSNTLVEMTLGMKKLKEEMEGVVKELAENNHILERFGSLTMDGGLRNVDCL
Description: as §1, §2, §3, §4

[24] = target: Lck (Homo sapiens, UniProt P06239); settings: Lck (Entrez LCK), read-out: Residual activity (%)
Chain of Lck (P06239 whole entry): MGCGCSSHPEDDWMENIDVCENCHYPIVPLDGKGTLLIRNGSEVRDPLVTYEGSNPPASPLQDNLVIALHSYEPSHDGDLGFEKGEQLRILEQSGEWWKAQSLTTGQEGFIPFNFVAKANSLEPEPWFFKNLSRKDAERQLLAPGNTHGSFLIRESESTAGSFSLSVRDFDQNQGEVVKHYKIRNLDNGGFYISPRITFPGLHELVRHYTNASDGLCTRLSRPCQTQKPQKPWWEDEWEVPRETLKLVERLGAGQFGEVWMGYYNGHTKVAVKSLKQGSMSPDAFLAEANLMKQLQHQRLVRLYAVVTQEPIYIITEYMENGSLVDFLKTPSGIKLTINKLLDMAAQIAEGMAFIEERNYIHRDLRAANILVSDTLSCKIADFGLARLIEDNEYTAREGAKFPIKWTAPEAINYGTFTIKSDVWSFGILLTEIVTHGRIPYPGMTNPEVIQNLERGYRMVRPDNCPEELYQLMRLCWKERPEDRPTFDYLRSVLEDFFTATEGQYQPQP
Description: as §1, §2, §3, §4

[25] = target: HER4 (Homo sapiens, UniProt Q15303); settings: HER4 (Entrez ERBB4), read-out: Residual activity (%)
Description: as §1, §2, §3, §4

[26] = target: PDK1 (Homo sapiens, UniProt O15530); settings: PDK1 (Entrez PDPK1), read-out: Residual activity (%)
Description: as §1, §2, §3, §4

[27] = target: PRAK (Homo sapiens, UniProt Q8IW41); settings: PRAK (Entrez MAPKAPK5), read-out: Residual activity (%)
Chain of PRAK (Q8IW41 whole entry): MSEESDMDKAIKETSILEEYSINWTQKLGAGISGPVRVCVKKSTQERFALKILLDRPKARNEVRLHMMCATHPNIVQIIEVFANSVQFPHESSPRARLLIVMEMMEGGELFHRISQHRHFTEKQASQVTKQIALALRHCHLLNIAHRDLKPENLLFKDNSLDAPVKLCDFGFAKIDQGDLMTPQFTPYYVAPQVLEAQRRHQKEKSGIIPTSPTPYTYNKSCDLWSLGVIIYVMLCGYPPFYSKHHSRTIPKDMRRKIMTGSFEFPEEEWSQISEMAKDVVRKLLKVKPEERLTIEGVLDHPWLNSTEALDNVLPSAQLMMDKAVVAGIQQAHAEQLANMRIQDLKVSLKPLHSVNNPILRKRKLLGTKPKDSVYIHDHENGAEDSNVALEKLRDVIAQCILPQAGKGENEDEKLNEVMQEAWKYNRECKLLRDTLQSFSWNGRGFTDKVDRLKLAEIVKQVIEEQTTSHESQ
Description: as §1, §2, §3, §4

[28] = target: MKK6 (Homo sapiens, UniProt P52564); settings: MKK6 (Entrez MAP2K6), read-out: Residual activity (%)
Chain of MKK6 (P52564 whole entry): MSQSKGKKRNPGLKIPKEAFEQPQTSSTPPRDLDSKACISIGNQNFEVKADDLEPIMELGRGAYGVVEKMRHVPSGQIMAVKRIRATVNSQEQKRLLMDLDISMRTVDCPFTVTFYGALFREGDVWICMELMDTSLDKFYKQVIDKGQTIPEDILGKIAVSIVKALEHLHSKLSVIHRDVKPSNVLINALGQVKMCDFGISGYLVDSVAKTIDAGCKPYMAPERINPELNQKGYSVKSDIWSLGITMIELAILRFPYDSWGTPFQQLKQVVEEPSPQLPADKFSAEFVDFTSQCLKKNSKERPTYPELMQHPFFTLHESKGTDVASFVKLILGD
Description: as §1, §2, §3, §4

[29] = target: ERK2 (Homo sapiens, UniProt P28482); settings: ERK2 (Entrez MAPK1), read-out: Residual activity (%)
Chain of ERK2 (P28482 whole entry): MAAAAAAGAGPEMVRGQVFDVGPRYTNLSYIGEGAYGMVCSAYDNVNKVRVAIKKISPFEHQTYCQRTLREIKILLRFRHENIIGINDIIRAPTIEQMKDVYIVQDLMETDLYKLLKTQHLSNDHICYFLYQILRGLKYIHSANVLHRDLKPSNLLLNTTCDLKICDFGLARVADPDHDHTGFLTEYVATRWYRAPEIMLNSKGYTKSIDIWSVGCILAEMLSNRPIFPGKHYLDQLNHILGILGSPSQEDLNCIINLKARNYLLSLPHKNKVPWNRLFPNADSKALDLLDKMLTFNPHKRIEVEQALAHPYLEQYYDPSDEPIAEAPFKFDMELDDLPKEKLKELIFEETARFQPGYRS
Description: as §1, §2, §3, §4

[30] = target: MAPKAP-K2 (Homo sapiens, UniProt P49137); settings: MAPKAP-K2 (Entrez MAPKAPK2), read-out: Residual activity (%)
Chain of MAPKAP-K2 (P49137 whole entry): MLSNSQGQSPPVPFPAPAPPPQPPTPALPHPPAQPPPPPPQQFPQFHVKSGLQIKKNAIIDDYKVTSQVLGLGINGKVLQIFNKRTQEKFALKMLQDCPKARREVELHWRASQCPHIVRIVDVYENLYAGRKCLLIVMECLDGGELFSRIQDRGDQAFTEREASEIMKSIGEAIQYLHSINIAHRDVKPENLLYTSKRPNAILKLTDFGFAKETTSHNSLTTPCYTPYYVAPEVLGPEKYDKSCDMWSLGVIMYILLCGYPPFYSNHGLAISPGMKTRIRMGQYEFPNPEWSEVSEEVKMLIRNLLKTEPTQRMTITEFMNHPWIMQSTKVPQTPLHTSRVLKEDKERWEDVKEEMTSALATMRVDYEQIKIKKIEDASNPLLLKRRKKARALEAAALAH
Description: as §1, §2, §3, §4

[31] = target: PKCa (Homo sapiens, UniProt P17252); settings: PKCa (Entrez PRKCA), read-out: Residual activity (%)
Description: as §1, §2, §3, §4

COc1ccc(Nc2ncnc3c2ccn3-c2ccc(C)c(C)c2)cc1Cl [compound 36]
remaining activity at 1 µM [1]: 98%
remaining activity at 1 µM [2]: 107%
remaining activity at 1 µM [3]: 93%
remaining activity at 1 µM [4]: 97%
remaining activity at 1 µM [5]: 89%
remaining activity at 1 µM [6]: 108%
remaining activity at 1 µM [7]: 95%
remaining activity at 1 µM [8]: 99%
remaining activity at 1 µM [9]: 101%
remaining activity at 1 µM [10]: 96%
remaining activity at 1 µM [11]: 93%
remaining activity at 1 µM [12]: 106%
remaining activity at 1 µM [13]: 111%
remaining activity at 1 µM [14]: 103%
remaining activity at 1 µM [15]: 94%
remaining activity at 1 µM [16]: 101%
remaining activity at 1 µM [17]: 107%
remaining activity at 1 µM [18]: 76%
remaining activity at 1 µM [19]: 104%
remaining activity at 1 µM [20]: 91%
remaining activity at 1 µM [21]: 90%
remaining activity at 1 µM [22]: 73%
remaining activity at 1 µM [23]: 92%
remaining activity at 1 µM [24]: 95%
remaining activity at 1 µM [25]: 80%
remaining activity at 1 µM [26]: 133%
remaining activity at 1 µM [27]: 90%
remaining activity at 1 µM [28]: 115%
remaining activity at 1 µM [29]: 110%
remaining activity at 1 µM [30]: 109%
remaining activity at 1 µM [31]: 96%
